{"source": "patent US20100272824A1", "about": "“COMPOSITIONS AND METHODS FOR PREVENTING AND MONITORING DISEASE” (The Texas A&M University System, priority 2009, published 2010)", "test_system": "colonocytes", "experiment": "In situ apoptosis (TUNEL assay), apoptotic index", "format": "in vivo, rat", "details": "pectin intake compared to cellulose intake, ACF/promotion stage, radiation study", "experimental": "Apoptosis was measured by the binding of TdT-mediated UTP-biotin nick end labeling (TUNEL assay) to fragmented pieces of DNA using sections (4 μm) of PFA-fixed, paraffin-embedded tissue. Apoptotic cells with condensed chromatin, apoptotic bodies and intense brown staining were counted in 50 crypt columns for each animal. The apoptotic index is 100 times the mean number of apoptotic cells per crypt column divided by the total number of cells per crypt column. Chang et al., “Predictive value of proliferation, differentiation and apoptosis as intermediate markers for colon tumorigenesis” Carcinogenesis 18:721-730 (1997).\nData were analyzed using ANOVA to determine the effect of diet (FO/P vs. CO/C) on apoptosis, high multiplicity ACF, and proliferative zone (SAS Institute Inc.). Colon tumor incidence was analyzed by Chi square analysis and reported as percentage of rats bearing tumors (SAS Institute Inc.)."}
{"substance": "pectin", "values": [{"measurement": "apoptosis", "value": "induced apoptosis"}, {"measurement": "apoptosis", "setting": "listed as Pectin", "value": "induced the levels of apoptosis"}]}
